In PubChem BioAssay (NCI):
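Exposure lasted 48 hours, with cells grown in 96-well plates and compounds tested at five concentrations. GI50 = concentration required for 50% inhibition of growth. TGI is the concentration that stops growth completely.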

Columns and labels:
Assay in all cases: DTP human tumour cell line panel, 48 h
NCI-H522 lung = tested on: NCI-H522 lung
SF-539 CNS = tested on: SF-539 CNS
UACC-257 melanoma = tested on: UACC-257 melanoma
OVCAR-3 ovarian = tested on: OVCAR-3 ovarian
OVCAR-5 ovarian = tested on: OVCAR-5 ovarian
NCI/ADR-RES ovarian = tested on: NCI/ADR-RES ovarian
SK-OV-3 ovarian = tested on: SK-OV-3 ovarian
SF-268 CNS = tested on: SF-268 CNS
OVCAR-4 ovarian = tested on: OVCAR-4 ovarian
MALME-3M melanoma = tested on: MALME-3M melanoma
RXF 393 renal = tested on: RXF 393 renal
UACC-62 melanoma = tested on: UACC-62 melanoma
HOP-92 NSCLC = tested on: HOP-92 NSCLC
A549 NSCLC = tested on: A549 NSCLC
EKVX NSCLC = tested on: EKVX NSCLC
CCRF-CEM leukemia = tested on: CCRF-CEM leukemia
KM12 colon = tested on: KM12 colon
SNB-75 CNS = tested on: SNB-75 CNS
HT29 colon = tested on: HT29 colon
HCT-15 colon = tested on: HCT-15 colon
SW-620 colon = tested on: SW-620 colon
PC-3 prostate = tested on: PC-3 prostate
MCF7 breast = tested on: MCF7 breast
A498 renal = tested on: A498 renal
OVCAR-8 ovarian = tested on: OVCAR-8 ovarian
NCI-H23 lung = tested on: NCI-H23 lung
NCI-H460 lung = tested on: NCI-H460 lung
TK-10 renal = tested on: TK-10 renal
U251 CNS = tested on: U251 CNS
LOX IMVI melanoma = tested on: LOX IMVI melanoma
HCC-2998 colon = tested on: HCC-2998 colon
NCI-H226 lung = tested on: NCI-H226 lung
SK-MEL-2 melanoma = tested on: SK-MEL-2 melanoma
HOP-62 NSCLC = tested on: HOP-62 NSCLC
SN12C renal = tested on: SN12C renal
SK-MEL-5 melanoma = tested on: SK-MEL-5 melanoma
MDA-MB-231 breast = tested on: MDA-MB-231 breast
SR leukemia = tested on: SR leukemia
K-562 leukemia = tested on: K-562 leukemia
SK-MEL-28 melanoma = tested on: SK-MEL-28 melanoma
RPMI-8226 leukemia = tested on: RPMI-8226 leukemia
HS 578T breast = tested on: HS 578T breast
T-47D breast = tested on: T-47D breast
ACHN renal = tested on: ACHN renal
COLO 205 colon = tested on: COLO 205 colon
SNB-19 CNS = tested on: SNB-19 CNS
SF-295 CNS = tested on: SF-295 CNS
UO-31 renal = tested on: UO-31 renal
MDA-MB-435 = tested on: MDA-MB-435
MOLT-4 leukemia = tested on: MOLT-4 leukemia
IGROV1 ovarian = tested on: IGROV1 ovarian
HL-60(TB) leukemia = tested on: HL-60(TB) leukemia
CAKI-1 renal = tested on: CAKI-1 renal
786-0 renal = tested on: 786-0 renal
BT-549 breast = tested on: BT-549 breast
M14 melanoma = tested on: M14 melanoma
DU-145 prostate = tested on: DU-145 prostate
HCT-116 colon = tested on: HCT-116 colon

## CC1=CC(=O)CC(C)(C)[C@@]1(O)/C=C/C(C)=C\C(=O)O
NCI-H522 lung
  GI50: 0.115 µM
  TGI: 0.359 µM
SF-539 CNS
  GI50: 0.206 µM
  TGI: 1.29 µM
UACC-257 melanoma
  GI50: 0.534 µM
  TGI: 2.52 µM
OVCAR-3 ovarian
  GI50: 0.148 µM
  TGI: 0.478 µM
OVCAR-5 ovarian
  GI50: 0.84 µM
  TGI: 2.98 µM
NCI/ADR-RES ovarian
  GI50: 1.01 µM
  TGI: 3.76 µM
SK-OV-3 ovarian
  GI50: 0.284 µM
  TGI: 2.22 µM
SF-268 CNS
  GI50: 0.793 µM
  TGI: 2.82 µM
OVCAR-4 ovarian
  GI50: 0.131 µM
  TGI: 0.464 µM
MALME-3M melanoma
  GI50: 0.104 µM
  TGI: 0.329 µM
RXF 393 renal
  GI50: 0.114 µM
  TGI: 0.327 µM
UACC-62 melanoma
  GI50: 0.545 µM
  TGI: 1.37 µM
HOP-92 NSCLC
  GI50: 0.566 µM
  TGI: 2.98 µM
A549 NSCLC
  GI50: 0.408 µM
  TGI: 3.5 µM
EKVX NSCLC
  GI50: 0.25 µM
  TGI: 2.29 µM
CCRF-CEM leukemia
  GI50: 0.196 µM
  TGI: > 50 µM
KM12 colon
  GI50: 0.21 µM
  TGI: 1.56 µM
SNB-75 CNS
  GI50: 0.517 µM
  TGI: 1.13 µM
HT29 colon
  GI50: 0.157 µM
  TGI: 0.585 µM
HCT-15 colon
  GI50: 0.153 µM
  TGI: 0.777 µM
SW-620 colon
  GI50: 0.285 µM
  TGI: 2.2 µM
PC-3 prostate
  GI50: 0.347 µM
  TGI: 3.46 µM
MCF7 breast
  GI50: 0.165 µM
  TGI: 1.36 µM
A498 renal
  GI50: 0.115 µM
  TGI: 0.374 µM
OVCAR-8 ovarian
  GI50: 0.527 µM
  TGI: 3.15 µM
NCI-H23 lung
  GI50: 0.376 µM
  TGI: 2.23 µM
NCI-H460 lung
  GI50: 0.132 µM
  TGI: 0.336 µM
TK-10 renal
  GI50: 0.471 µM
  TGI: 2.74 µM
U251 CNS
  GI50: 0.224 µM
  TGI: 2.26 µM
LOX IMVI melanoma
  GI50: 0.129 µM
  TGI: 0.432 µM
HCC-2998 colon
  GI50: 0.139 µM
  TGI: 0.43 µM
NCI-H226 lung
  GI50: 0.148 µM
  TGI: 0.499 µM
SK-MEL-2 melanoma
  GI50: 0.923 µM
  TGI: 2.31 µM
HOP-62 NSCLC
  GI50: 0.159 µM
  TGI: 1.05 µM
SN12C renal
  GI50: 0.894 µM
  TGI: 3.9 µM
SK-MEL-5 melanoma
  GI50: 0.111 µM
  TGI: 0.252 µM
MDA-MB-231 breast
  GI50: 1.14 µM
  TGI: 3.55 µM
SR leukemia
  GI50: 0.155 µM
  TGI: > 50 µM
K-562 leukemia
  GI50: 0.164 µM
  TGI: > 50 µM
SK-MEL-28 melanoma
  GI50: 0.172 µM
  TGI: 0.669 µM
RPMI-8226 leukemia
  GI50: 0.174 µM
  TGI: 0.644 µM
HS 578T breast
  GI50: 0.209 µM
  TGI: 1.57 µM
T-47D breast
  GI50: 0.34 µM
  TGI: 2.22 µM
ACHN renal
  GI50: 0.489 µM
  TGI: 2.38 µM
COLO 205 colon
  GI50: 0.204 µM
  TGI: 0.95 µM
SNB-19 CNS
  GI50: 0.254 µM
  TGI: 2.28 µM
SF-295 CNS
  GI50: 0.749 µM
  TGI: 2.32 µM
UO-31 renal
  GI50: 0.608 µM
  TGI: 2.3 µM
MDA-MB-435
  GI50: 0.182 µM
  TGI: 0.738 µM
MOLT-4 leukemia
  GI50: 0.152 µM
  TGI: > 50 µM
IGROV1 ovarian
  GI50: 0.157 µM
  TGI: 0.946 µM
HL-60(TB) leukemia
  GI50: 0.127 µM
  TGI: 0.309 µM

## C#Cc1nc(/C=C/C(=O)NO)cs1
NCI-H522 lung
  GI50: 0.211 µM
  TGI: 0.44 µM
SF-539 CNS
  GI50: 1.62 µM
  TGI: 3.12 µM
UACC-257 melanoma
  GI50: 1.55 µM
  TGI: 11 µM
OVCAR-5 ovarian
  GI50: 2.34 µM
  TGI: 6.11 µM
NCI/ADR-RES ovarian
  GI50: 1.15 µM
  TGI: 34.1 µM
SK-OV-3 ovarian
  GI50: 3.32 µM
  TGI: 13.4 µM
SF-268 CNS
  GI50: 2.24 µM
  TGI: 5.08 µM
CAKI-1 renal
  GI50: 1.72 µM
  TGI: 3.24 µM
OVCAR-4 ovarian
  GI50: 1.91 µM
  TGI: 4.28 µM
MALME-3M melanoma
  GI50: 1.29 µM
  TGI: 2.85 µM
RXF 393 renal
  GI50: 1.25 µM
  TGI: 2.91 µM
UACC-62 melanoma
  GI50: 2.14 µM
  TGI: 8.56 µM
HOP-92 NSCLC
  GI50: 1.43 µM
  TGI: 3 µM
A549 NSCLC
  GI50: 3.89 µM
  TGI: 22.5 µM
EKVX NSCLC
  GI50: 2.25 µM
  TGI: 5.07 µM
CCRF-CEM leukemia
  GI50: 0.414 µM
  TGI: 1.95 µM
KM12 colon
  GI50: 3.51 µM
  TGI: 14.5 µM
SNB-75 CNS
  GI50: 1.11 µM
  TGI: 2.56 µM
HT29 colon
  GI50: 2.34 µM
  TGI: 5.7 µM
HCT-15 colon
  GI50: 2.98 µM
  TGI: 14.9 µM
SW-620 colon
  GI50: 2.07 µM
  TGI: 5.08 µM
PC-3 prostate
  GI50: 4.52 µM
  TGI: 23.7 µM
MCF7 breast
  GI50: 3.27 µM
  TGI: 19.6 µM
786-0 renal
  GI50: 0.211 µM
  TGI: 0.427 µM
A498 renal
  GI50: 1.8 µM
  TGI: 3.66 µM
OVCAR-8 ovarian
  GI50: 2.24 µM
  TGI: 11.5 µM
BT-549 breast
  GI50: 2.63 µM
  TGI: 6.74 µM
NCI-H23 lung
  GI50: 1.3 µM
  TGI: 2.71 µM
NCI-H460 lung
  GI50: 3.15 µM
  TGI: 19.4 µM
TK-10 renal
  GI50: 2.15 µM
  TGI: 8.1 µM
U251 CNS
  GI50: 2.44 µM
  TGI: 6.84 µM
LOX IMVI melanoma
  GI50: 0.171 µM
  TGI: 0.326 µM
HCC-2998 colon
  GI50: 12.7 µM
  TGI: 26.1 µM
NCI-H226 lung
  GI50: 10.4 µM
  TGI: 36.6 µM
M14 melanoma
  GI50: 3.15 µM
  TGI: 15 µM
SK-MEL-2 melanoma
  GI50: 4.58 µM
  TGI: 17.6 µM
DU-145 prostate
  GI50: 2.01 µM
  TGI: 6.16 µM
HOP-62 NSCLC
  GI50: 2.76 µM
  TGI: 15 µM
SN12C renal
  GI50: 5.89 µM
  TGI: 85 µM
SK-MEL-5 melanoma
  GI50: 3.6 µM
  TGI: 14 µM
MDA-MB-231 breast
  GI50: 2.88 µM
  TGI: 7.82 µM
K-562 leukemia
  GI50: 3.01 µM
  TGI: 12.8 µM
SK-MEL-28 melanoma
  GI50: 4.02 µM
  TGI: 33.7 µM
RPMI-8226 leukemia
  GI50: 2.03 µM
  TGI: 7.65 µM
HS 578T breast
  GI50: 2.04 µM
  TGI: 7.62 µM
HCT-116 colon
  GI50: 1.56 µM
  TGI: 3.58 µM
T-47D breast
  GI50: 2.17 µM
  TGI: 7.44 µM
ACHN renal
  GI50: 2.51 µM
  TGI: 7.1 µM
COLO 205 colon
  GI50: 4.17 µM
  TGI: 14.9 µM
SNB-19 CNS
  GI50: 6.8 µM
  TGI: 24.3 µM
SF-295 CNS
  GI50: 1.91 µM
  TGI: 3.56 µM
UO-31 renal
  GI50: 0.182 µM
  TGI: 0.341 µM
MDA-MB-435
  GI50: 3.7 µM
  TGI: 15.9 µM
IGROV1 ovarian
  GI50: 0.501 µM
  TGI: 1.92 µM
HL-60(TB) leukemia
  GI50: 1.66 µM
  TGI: 4.09 µM
